Structures can show the parent of a compound that is named as a salt.
The molecules below were run on hCoV-19/Norway/Trondheim-E9/2020 (assay: Drug test: viability of SARS-CoV-2-infected Vero-E6 cells (CellTiter-Glo)). Details: 72 h.
Format: cell-based
Parameters: AUC: unit not given beside the values

| SMILES | AUC |
| --- | --- |
| Cn1c(=O)c2c(ncn2CC(O)CO)n(C)c1=O (stereo not shown) [7-(2,3-Dihydroxypropyl)theophylline] | 195,44 |
| COc1ccc(C[C@H]2NC[C@H](O)[C@H]2OC(C)=O)cc1 [Anisomycin] | 169,33 |
| Nc1ncn([C@@H]2O[C@H](CO)[C@@H](O)[C@H]2O)c(=O)n1 [Azacytidine] | 228,06 |
| CCN(CC)C[C@@H](O)CNc1ccc(NC[C@H]2CO2)c2c1C(=O)c1ccccc1C2=O [BDA-366] | 174,3 |
| COc1ccc2cc3[n+](cc2c1OC)CCc1cc2c(cc1-3)OCO2 [Berberine] | 236,67 |
| CC(C)C[C@H]1C(=O)N2CCC[C@H]2[C@]2(O)O[C@](NC(=O)[C@@H]3C=C4c5cccc6[nH]c(Br)c(c56)C[C@H]4N(C)C3)(C(C)C)C(=O)N12.CS(=O)(=O)O [Bromcriptine mesilate] | 59,71 |
| CC(C)C[C@H]1C(=O)N2CCC[C@H]2[C@]2(O)O[C@](NC(=O)[C@@H]3C=C4c5cccc6[nH]c(Br)c(c56)C[C@H]4N(C)C3)(C(C)C)C(=O)N12 [Bromocriptine] | 164,57 |
| CC[C@@]1(O)C(=O)OCc2c1cc1n(c2=O)Cc2cc3ccccc3nc2-1 [Camptothecin] | 57,75 |
| NCCCC(N)(C(=O)O)C(F)F (stereo not shown) [DFMO (Difluoromethylomithine), Difluoromethylomithine] | 142,66 |
| CN[C@H]1C(=O)N[C@@H]2Cc3ccc(cc3)Oc3cc4cc(c3O[C@@H]3O[C@H](C(=O)O)[C@@H](O)[C@H](O)[C@H]3NC(=O)CCCCCCCCC(C)C)Oc3ccc(cc3Cl)[C@@H](O)[C@@H]3NC(=O)[C@H](NC(=O)[C@@H]4NC(=O)[C@@H](NC2=O)c2cc(cc(O)c2Cl)Oc2cc1ccc2O)c1ccc(O)c(c1)-c1c(O[C@H]2O[C@H](CO)[C@@H](O)[C@H](O)[C@@H]2O)cc(O)cc1[C@@H](C(=O)NCCCN(C)C)NC3=O [Dalbavancin] | 136,29 |
| Cc1cc(O)c2c(c1)C(=O)c1cc(O)cc(O)c1C2=O [Emodin] | 170,24 |
| COc1ccc(CC(C)NCC(O)c2ccc(O)c(NC=O)c2)cc1 (stereo not shown) [Formoterol] | 203,77 |
| CC1(C)[C@@H](O[C@H]2O[C@H](C(=O)O)[C@@H](O)[C@H](O)[C@H]2O[C@@H]2O[C@H](C(=O)O)[C@@H](O)[C@H](O)[C@H]2O)CC[C@]2(C)[C@H]3C(=O)C=C4[C@@H]5C[C@@](C)(C(=O)O)CC[C@]5(C)CC[C@@]4(C)[C@]3(C)CC[C@@H]12 [Glycyrrhizic acid (Glycyrrhizin), Glycyrrhizic acid] | 235,76 |
| Oc1c(Cl)cc(Cl)c(Cl)c1Cc1c(O)c(Cl)cc(Cl)c1Cl [Hexachlorophene] | 122,15 |

Same assay, conditions: area under the dose-response curve of viability of virus-infected Vero-E6 cells; moi 0.1; 72 h; 7 concentrations; decimal comma

| SMILES | AUC |
| --- | --- |
| CC(=O)N[C@@H](CS)C(=O)O [Acetylcysteine] | 43,47 |
| CC(=O)Oc1ccccc1C(=O)O [Acetylsalicylic acid] | 131,04 |
| N=C(N)NC(=O)c1nc(Cl)c(N)nc1N [Amiloride (EIPA)] | 182,56 |
| C[C@H]1[C@H](OC(=O)CCC(=O)O)O[C@@H]2O[C@@]3(C)CC[C@H]4[C@H](C)CC[C@@H]1[C@@]24OO3 [Artesunate] | 222,25 |
| O=C1O[C@H]([C@@H](O)CO)C(O)=C1O [Ascorbic acid] | 108,5 |
| CC[C@H]1OC(=O)[C@H](C)[C@@H](O[C@H]2C[C@@](C)(OC)[C@@H](O)[C@H](C)O2)[C@H](C)[C@@H](O[C@@H]2O[C@H](C)C[C@H](N(C)C)[C@H]2O)[C@](C)(O)C[C@@H](C)CN(C)[C@H](C)[C@@H](O)[C@]1(C)O [Azithromycin] | 119,42 |
| Nc1ncnc2c([C@@H]3N[C@H](CO)[C@@H](O)[C@H]3O)c[nH]c12 [BCX4430 (galidesivir), galidesivir] | 94,08 |
| CN1[C@@H]2CC[C@H]1C[C@@H](OC(c1ccccc1)c1ccccc1)C2 [Benzatropine] | 208,11 |
| CC(C)COCC(CN(Cc1ccccc1)c1ccccc1)N1CCCC1 (stereo not shown) [Bepridil] | 285,95 |
| CC(C)C[C@H](NC(=O)[C@H](Cc1ccccc1)NC(=O)c1cnccn1)B(O)O [Bortezomib (PS-341), Bortezomib] | 68,67 |
| Cc1c(-c2ccc(-c3ccccc3F)cc2)nc2ccc(F)cc2c1C(=O)O [Brequinar] | 260,54 |
| CCCCCCCCCCCCCCCCOCCCOP(=O)(O)CO[C@H](CO)Cn1ccc(N)nc1=O [Brincidofovir (CMX001), Brincidofovir] | 126,49 |
| CN(Cc1cc(Br)cc(Br)c1N)C1CCCCC1 [Bromhexine HCl] | 124,95 |
| CCCCNc1cc(C(=O)O)cc(S(N)(=O)=O)c1Oc1ccccc1 [Bumetanide] | 87,85 |
| Cn1c(=O)c2c(ncn2C)n(C)c1=O [Caffeine] | 147,28 |
| CN(C)C(=O)COC(=O)Cc1ccc(OC(=O)c2ccc(NC(=N)N)cc2)cc1 [Camostat] | 88,41 |
| CCN(CC)CCCC(C)Nc1ccnc2cc(Cl)ccc12 (stereo not shown) [Chloroquine phosphate] | 165,9 |
| CN(C)CCCN1c2ccccc2Sc2ccc(Cl)cc21 [Chlorpromazine hydrochloride] | 86,52 |
| CC(C)C(=O)OCC(=O)[C@@]12O[C@H](C3CCCCC3)O[C@@H]1C[C@H]1[C@@H]3CCC4=CC(=O)C=C[C@]4(C)[C@H]3[C@@H](O)C[C@@]12C [Ciclesonide] | 157,15 |

| SMILES | AUC |
| --- | --- |
| Nc1ccn(C[C@@H](CO)OCP(=O)(O)O)c(=O)n1 [Cidofovir] | 144,69 |
| Nc1nc(Cl)nc2c1ncn2[C@@H]1O[C@H](CO)[C@@H](O)[C@@H]1F [Clofarabine] | 112,42 |
| Cc1nc(Nc2ncc(C(=O)Nc3c(C)cccc3Cl)s2)cc(N2CCN(CCO)CC2)n1 [Dasatinib] | 135,45 |
| CCCCOc1cc(C(=O)NCCN(CC)CC)c2ccccc2n1 [Dibucaine] | 214,34 |
| COc1ccc([C@@H]2Sc3ccccc3N(CCN(C)C)C(=O)[C@@H]2OC(C)=O)cc1 [Diltiazem] | 99,61 |
| CCn1cc(C(=O)O)c(=O)c2cc(F)c(N3CCNCC3)nc21 [Enoxacin] | 118,23 |
| C#Cc1cccc(Nc2ncnc3cc(OCCOC)c(OCCOC)cc23)c1 [Erlotinib] | 103,46 |
| COc1ccc2nc([S@@+]([O-])Cc3ncc(C)c(OC)c3C)[nH]c2c1 [Esomeprazole] | 177,52 |
| O=C1[C@H](CC[C@H](O)c2ccc(F)cc2)[C@@H](c2ccc(O)cc2)N1c1ccc(F)cc1 [Ezetimibe] | 138,39 |
| CC(=O)OCC(CCn1cnc2cnc(N)nc21)COC(C)=O [Famciclovir] | 149,52 |
| NC(=O)c1nc(F)c[nH]c1=O [Favipiravir (T-705), Favipiravir] | 136,64 |
| CC1=C(/C=C/C(C)=C/C=C/C(C)=C/C(=O)Nc2ccc(O)cc2)C(C)(C)CCC1 [Fenretinide (4-HPR), Fenretinide] | 137,9 |
| CNCCC(Oc1ccc(C(F)(F)F)cc1)c1ccccc1 (stereo not shown) [Fluoxetine] | 104,37 |
| CC(C)n1c(/C=C/C(O)CC(O)CC(=O)O)c(-c2ccc(F)cc2)c2ccccc21 (stereo not shown) [Fluvastatin] | 154,14 |
| O=C(O)P(=O)(O)O [Foscarnet] | 127,26 |
| Nc1nc(O)c2ncn(COC(CO)CO)c2n1 [Ganciclovir] | 243,88 |
| COc1cc2ncnc(Nc3ccc(F)c(Cl)c3)c2cc1OCCCN1CCOCC1 [Gefitinib] | 188,86 |
| Nc1ccn([C@@H]2O[C@H](CO)[C@@H](O)C2(F)F)c(=O)n1 [Gemcitabine] | 92,89 |
| O=c1c(-c2ccc(O)cc2)coc2cc(O[C@@H]3O[C@H](CO)[C@@H](O)[C@H](O)[C@H]3O)cc(O)c12 [Genistin] | 54,1 |

From publication PMC7354438 (Viruses, 2020)
